Test results as given in ChEMBL document CHEMBL1156829 (Proc Natl Acad Sci U S A, 2008).
pEC50: −log10 of the molar value.

Experiments:
Plasmodium falciparum [1] = assay: NOVARTIS: Inhibition of Plasmodium falciparum 3D7 (drug-susceptible) proliferation in erythrocyte-based infection assay; assay type: functional, organism-based; conditions: Plasmodium falciparum, 3D7
Plasmodium falciparum [2] = assay: NOVARTIS: Inhibition of Plasmodium falciparum W2 (drug-resistant) proliferation in erythrocyte-based infection assay; assay type: functional, organism-based; conditions: Plasmodium falciparum, W2; read-out: EC50
[3] = NOVARTIS: Cytotoxicity against human hepatocellular carcinoma cell line (Huh7); assay type: toxicity, cell-based, Huh-7; conditions: Huh7 cells (hepatocellular carcinoma cell line)

SMILES | pEC50 (Plasmodium falciparum [1]) | pEC50 (Plasmodium falciparum [2]) | CC50 [3]
O=C(Nc1ccc(C2=NCCN2)c(Cl)c1)c1ccc(C(=O)Nc2ccc(C3=NCCN3)c(Cl)c2)cc1 | 6.26 | 6.63 | > 10 µM
O=C(C1CCN(c2cccc3c2C(=O)N(C2CC2)C3=O)CC1)N1CCC(O)(c2ccc(Cl)cc2)CC1 | < 5.90 | < 5.99 | > 10 µM
CCOc1ccc(N2C(=O)c3ccccc3NC2(C)C)cc1 | < 5.00 | < 4.90 | > 100 µM
CC(CCCC(C)(C)O)Nc1cncc(-c2ccc(C(N)=O)cc2)n1 (stereo not drawn) | < 5.90 | < 5.92 | > 10 µM
OC1CCCCC1C1(NC(=S)Nc2ccccc2)CCCCC1 (stereo not drawn) | 6.68 | 6.82 | 22.8 µM
COc1nncc(-c2cnnc(SC)n2)n1 | 6.63 | 6.66 | 28.4 µM
COCCOC(=O)C1=C(C)NC2=C(C(=O)CC(c3ccc(OC)c(OC)c3)C2)C1c1ccc(F)cc1 (stereo not drawn) | 7.42 | 7.75 | 46.8 µM
CCCNC(=O)CCCCCSc1nc2ccccc2c(=O)n1-c1ccc(F)cc1 | 6.11 | < 5.93 | > 11.5 µM
CCCN(CCC)S(=O)(=O)c1cc(Br)cc2c1N(C(=O)C1CC1)CC2 | 6.39 | 6.13 | > 100 µM
Cc1nc(-c2ccc[n+](C)c2)sc1C(=O)C=Cc1ccc(Cl)cc1 | 6.47 | 6.10 | 65.2 µM
Cc1noc(-c2ccc(O)cc2O)c1-c1ccc2c(c1)OCCO2 | 6.61 | 6.69 | 15.2 µM
CC(=O)c1cccc(CN2CCC(C(=O)Nc3ccc(-n4nc(C)cc4C)cc3)CC2)c1 | 5.67 | 5.71 | > 100 µM
CN1CCN(c2ccc(Nc3ccnc4cc(Cl)ccc34)cc2Cl)CC1 | 7.45 | 7.26 | > 23.7 µM
COc1cc(C)c(CCNCCCCCCNCCc2cc(OC)c(OC)cc2C)cc1OC | 6.64 | < 6.06 | > 10 µM
O=C(Nc1nc(-c2ccccn2)cs1)c1ccc(Oc2ccc(C(=O)Nc3nc(-c4ccccn4)cs3)cc2)cc1 | 5.65 | 6.22 | > 100 µM
COc1cc(C=NNc2nc3nonc3nc2Nc2ccc(Cl)cc2)ccc1O | < 5.90 | 5.99 | > 10 µM
CS(=O)(=O)N1CCCCC1C(=O)NCc1ccc(OC2CCN(CC(c3ccccc3)c3ccccc3)CC2)cc1 (stereo not drawn) | 5.99 | 7.64 | > 10 µM
Cc1ccc(NC2=C(N3CCCCC3)C(=O)c3ccccc3C2=O)cc1 | 6.88 | 7.11 | 18.5 µM
COc1cc(NC(C)CCCN(Cc2ccccc2OC)C(=O)c2ccc(C)c([N+](=O)[O-])c2)c2ncccc2c1 (stereo not drawn) | 6.06 | 6.26 | 4.64 µM
CC=C[C@H]1O[C@@](O)([C@@H](C)C(O)C(C)[C@H]2OC(=O)C(OC)=CC(C)=C[C@@H](C)[C@H](O)C(CC)[C@@H](O)[C@H](C)CC(C)=CC=C[C@@H]2OC)C[C@@H](O[C@H]2C[C@@H](O)[C@H](OC(N)=O)[C@@H](C)O2)[C@@H]1C (stereo partly drawn) | 5.93 | < 5.90 | > 10 µM
Cc1ccc(Cn2c(=N)n(CC(O)c3ccc(Cl)c(Cl)c3)c3ccccc32)cc1 (stereo not drawn) | 6.97 | 7.21 | 6 µM
COCCCNC(=O)/C=C/c1ccc(C(C)C)cc1 | 5.98 | 5.83 | > 13.5 µM
CN1CCN(c2ccc(NC(=O)Oc3ccccc3)cc2)CC1 | 5.38 | 5.13 | 25.4 µM
CCOC(=O)c1c(S(=O)(=O)Nc2ccc(C(C)(C)C)cc2)c(-c2ccccc2)n(-c2ccccc2)c1C | 6.16 | 6.37 | > 100 µM
Cc1ccc2[nH]c3c(NCCN(C(C)C)C(C)C)ncnc3c2c1 | 6.51 | 6.38 | 16.3 µM
COc1ccc(CN(Cc2ccc(C(C)C)cc2)S(=O)(=O)c2ccc(S(=O)(=O)N3CCN(c4ccccc4F)CC3)cc2)cc1 | < 4.90 | 5.92 | > 100 µM
